# Measured values from US20020187998A1, “Local ophthalmic agent for treatment of ocular inflammation” (Sucampo AG, priority 2001, published 2002).
# How the values were obtained:
# Format in all cases: in vivo, human
# [1] = test system: inflammations caused by foreign bodies (cat hair, cat dander, pollens of a tree, ragweed or grass) instilled in the eye; experiment: Itching on the eye after ocular instillation of foreign bodies, 3 hours after FK506 eye drops (Example 1); settings: foreign bodies 3 hours after instillation, graded 5 minutes later, score 0-4, FIG. 1
# From the text: In a total of four groups each having 30 persons, FK506 eye drops (0.01%, 0.06% and 0.1%) were instilled in the respective experimental groups, and placebo was instilled in the control group. Three hours after the ocular instillation, various foreign bodies (cat hair, cat dander, and pollens of a tree, ragweed or grass) were ocularly instilled in both the experimental groups and the control group, thus causing inflammations. Five minutes later, itching on the eye was graded according to five-rank scores (0-4). The decreases from the score (baseline) in instilling only foreign bodies were calculated.
# [2] = test system: inflammations caused by foreign bodies (cat hair, cat dander, pollens of a tree, ragweed or grass) instilled in the eye; experiment: Conjunctival hyperemia and chemosis after ocular instillation of foreign bodies, 16 hours after final instillation (Example 2); settings: 0.1% FK506 eye drops once a day for one week
# Method: FK506 was ocularly instilled in the subjects once a day for one week, and the same amount of placebo was ocularly instilled in the control group. At 16 hours after the final ocular instillation, various foreign bodies (cat hair, cat dander, and pollens of a tree, ragweed or grass) were ocularly instilled in both the experimental groups and the control group, thus causing the inflammations. Ten minutes later, conjunctival hyperemia and chemosis were graded according to five-rank scores (0-4). The changes from the score (baseline) in instilling only foreign bodies were calculated.
# [3] = test system: progressive corneal ulcer caused by pemphigoid; experiment: Patient case, FK506 eye drops (Example 3); settings: 0.06% FK506 eye drops three times a day, one patient
# From the text: A patient suffering from progressive corneal ulcer caused by pemphigoid was instilled with 0.06% FK506 eye drops three times a day.
# [4] = test system: progressive Mooren's ulcer; experiment: Patient case, FK506 eye drops (Example 4); settings: 0.06% FK506 eye drops three times a day, one patient
# From the text: A patient suffering from progressive Mooren's ulcer was instilled with 0.06% FK506 eye drops three times a day.
# [5] = test system: chronic nummular keratitis; experiment: Patient case, FK506 eye drops (Example 5); settings: 0.06% FK506 eye drops three times a day, one patient
# From the text: A patient suffering from chronic nummular keratitis was instilled with 0.06% FK506 eye drops three times a day.
# [6] = test system: Thygeson keratitis; experiment: Patient case, FK506 eye drops (Example 6); settings: 0.06% FK506 eye drops three times a day
# [7] = test system: inflammations caused by injury after penetrating keratoplasty, history of steroid glaucoma and chronic rejection; experiment: Patient case, FK506 eye drops after penetrating keratoplasty (Example 7); settings: 0.06% FK506 eye drops three times a day
# From the text: As a result, the progression of inflammations caused by injury was arrested and such effects were maintained at 34 weeks later.
# [8] = test system: blepharokeratoconjunctivitis; experiment: Patient case, FK506 eye drops (Example 8); settings: 0.06% FK506 eye drops three times a day
# [9] = test system: penetrating keratoplasty due to keratoconus; experiment: Patient case, FK506 eye drops after penetrating keratoplasty due to keratoconus (Example 9); settings: 0.06% FK506 eye drops three times a day
# [10] = one patient without conventional therapy
smiles,measurement,setting,value
"C=CC[C@@H]1/C=C(\C)C[C@H](C)C[C@H](OC)[C@H]2O[C@@](O)(C(=O)C(=O)N3CCCC[C@H]3C(=O)O[C@H](/C(C)=C/[C@@H]3CC[C@@H](O)[C@H](OC)C3)[C@H](C)[C@@H](O)CC1=O)[C@H](C)C[C@@H]2OC [FK506, 17-allyl-1,14-dihydroxy-12-[2-(4-hydroxy-3-methoxycyclohexyl)-1-methylvinyl]-23,25-dimethoxy-13,19,21,27-tetramethyl-11,28-dioxa-4-azatricyclo [22.3.1.0^4,9]octacos-18-ene-2,3,10,16-tetraone]","decreases of itching score from the baseline, compared with placebo",[1]; 0.01% FK506 eye drops,decreases of itching were greater
same,"decreases of itching score from the baseline, compared with placebo",[1]; 0.06% FK506 eye drops,decreases of itching were greater
same,"decreases of itching score from the baseline, compared with placebo",[1]; 0.1% FK506 eye drops,decreases of itching were greater
same,duration of ocular anti-inflammatory effects (antiedemic effect and anti-flare effect),[2],at least 16 hours
same,"Changes of chemosis scores from the baseline, mean ± S.E.","[2]; challenge 16 hours after final instillation, graded 10 minutes later, score 0-4, p < 0.001",−0.30 ± 0.07
same,"Changes of conjunctival hyperemia scores from the baseline, mean ± S.E.","[2]; challenge 16 hours after final instillation, graded 10 minutes later, score 0-4, p < 0.01",−0.51 ± 0.07
same,improving effects,[3],significant improving effects were observed
same,time at which effects were maintained,[3],43 weeks
same,improving effects,[4],significant improving effects were observed
same,time at which effects were maintained,[4],41 weeks
same,improving effects,[5],significant improving effects were observed
same,time at which effects were maintained,[5],43 weeks
same,time until improving effects were observed,[5],two
same,time at which effects were maintained,[6]; one patient,41 weeks
same,time until improving effects were observed,[6]; one patient,three
same,improving effects,[6]; [10],significant improving effects were observed
same,progression of inflammations caused by injury,[7]; one patient,arrested
same,time at which effects were maintained,[7]; one patient,34 weeks
same,intraocular pressure increase,[7]; patient with history of steroid glaucoma,no intraocular pressure increase was observed
same,time at which effects were maintained,[8]; one patient,18 weeks
same,time until improving effects were observed,[8]; one patient,two
same,improving effects,[8]; [10],significant improving effects were observed
same,time at which effects were maintained,[9]; one patient,25 weeks
same,improving effects,[9]; [10],significant improving effects were observed
